Experiment [1] deals with Recombinant Cat D (Homo sapiens (Human), UniProt P07339). Put plainly: In vitro enzymatic Cathepsin D (Cat D) FRET assay. The class given is biochemical. The note with it: read-out: IC50 IP (μM) CatD. The method in brief: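 Cleavage of a 20 nM FRET peptide by CHO-derived Cat D over 1 h at pH 3.5 (citrate buffer with CHAPS, 10% DMSO final). Endpoint fluorescence is read after Tris quench.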

Experiment [2] addresses human recombinant BACE2 (Homo sapiens (Human), UniProt Q9Y5Z0). The experiment in a line: In vitro enzymatic BACE2 FRET assay. The class given is biochemical. To be noted: read-out: IC50 IP (μM) BACE2 enzyme. The essentials:
(§1)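 FRET cleavage assay using Ni-NTA-purified recombinant protease and 50 nM quenched peptide substrate, 1 h. Stopped by neutralising with Tris; fluorescence at 488/590 nm.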

The test system of experiment [3] is Aβ40 in conditioned medium of cells stably expressing Amyloid Precursor Protein (APP). The experiment in a line: In vitro BACE-1 cell-based assay (Aβ40 sandwich ELISA). To be noted: read-out: IC50 IP (μM) BACE1 cell. The essentials: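 APP-stable cells, pre-cultured 24 h at 37° C in DMEM/10% FBS, were treated 24 h with compound in a 10-point series starting at 100 μM or 10 μM (0.1% DMSO final). Secreted Aβ40 in conditioned medium was measured by pAb40/biotin-6E10 sandwich ELISA with Europium time-resolved fluorescence; IC50 from percent inhibition versus concentration.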
A general note: ELISA stands for enzyme-linked immunosorbent assay.

The target in experiment [4] is human recombinant BACE1 (Homo sapiens (Human), UniProt P56817). The experiment in a line: In vitro enzymatic BACE1 FRET assay. The class given is biochemical. To be noted: read-out: IC50 IP (μM) BACE1 enzyme. The essentials: as §1

This is an account of results in patent US20160046618A1, “Cyclopropyl Fused Thiazin-2-Amine Compounds as Beta-Secretase Inhibitors and Methods of Use” (AMGEN INC., priority 2014, published 2016).

The structures appear in SMILES notation.

The term IC50 denotes the concentration that inhibits the measured activity by half.

Sequence of human recombinant BACE2 (Q9Y5Z0 63-518): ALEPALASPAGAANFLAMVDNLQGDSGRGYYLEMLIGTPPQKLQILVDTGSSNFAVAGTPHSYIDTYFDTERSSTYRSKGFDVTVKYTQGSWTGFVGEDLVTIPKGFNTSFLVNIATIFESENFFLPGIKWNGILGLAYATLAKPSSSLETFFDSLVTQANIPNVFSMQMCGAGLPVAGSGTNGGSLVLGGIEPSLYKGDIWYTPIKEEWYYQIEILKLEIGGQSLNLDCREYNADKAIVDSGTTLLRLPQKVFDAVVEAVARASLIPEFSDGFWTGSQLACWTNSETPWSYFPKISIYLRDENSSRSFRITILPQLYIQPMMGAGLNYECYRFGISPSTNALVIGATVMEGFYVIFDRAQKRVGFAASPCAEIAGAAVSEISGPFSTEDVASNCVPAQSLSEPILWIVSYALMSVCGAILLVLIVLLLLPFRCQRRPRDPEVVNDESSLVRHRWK
Sequence of human recombinant BACE1 (P56817 46-501): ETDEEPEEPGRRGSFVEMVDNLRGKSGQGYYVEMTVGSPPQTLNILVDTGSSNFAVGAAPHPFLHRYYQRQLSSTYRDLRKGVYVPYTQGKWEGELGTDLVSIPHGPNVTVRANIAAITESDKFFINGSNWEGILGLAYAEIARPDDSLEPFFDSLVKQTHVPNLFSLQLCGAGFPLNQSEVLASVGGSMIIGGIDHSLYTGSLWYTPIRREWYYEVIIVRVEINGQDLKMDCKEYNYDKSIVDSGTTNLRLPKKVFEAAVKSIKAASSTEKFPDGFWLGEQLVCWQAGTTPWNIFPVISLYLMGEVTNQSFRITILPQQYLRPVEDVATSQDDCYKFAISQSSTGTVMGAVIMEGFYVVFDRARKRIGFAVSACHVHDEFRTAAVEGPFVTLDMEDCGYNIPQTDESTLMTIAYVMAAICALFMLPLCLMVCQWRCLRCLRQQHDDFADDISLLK
Sequence of Recombinant Cat D (P07339 65-412): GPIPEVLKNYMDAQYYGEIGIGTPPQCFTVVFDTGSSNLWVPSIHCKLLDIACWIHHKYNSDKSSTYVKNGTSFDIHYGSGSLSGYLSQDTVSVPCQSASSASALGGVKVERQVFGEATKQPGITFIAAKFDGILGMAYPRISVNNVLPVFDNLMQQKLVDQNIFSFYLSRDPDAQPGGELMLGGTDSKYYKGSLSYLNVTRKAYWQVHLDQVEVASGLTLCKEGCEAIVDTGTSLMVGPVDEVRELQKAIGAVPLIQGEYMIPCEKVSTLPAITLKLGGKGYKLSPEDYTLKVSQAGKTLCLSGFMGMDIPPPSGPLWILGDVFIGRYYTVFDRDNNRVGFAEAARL

In the case of `C[C@]1(c2cc(Nc3nccc4nc(OCc5ncco5)cnc34)cnc2F)N=C(N)S[C@@]2(C(F)F)C[C@@H]12` [Example 654, N-(5-((1S,5S,6S)-3-amino-1-(difluoromethyl)-5-methyl-2-thia-4-azabicyclo[4.1.0]hept-3-en-5-yl)-6-fluoro-3-pyridinyl)-2-(1,3-oxazol-2-ylmethoxy)pyrido[3,4-b]pyrazin-5-amine], the IC50 is 861 µM in experiment [1], 0.0291 µM in experiment [2], 0.00166 µM in experiment [3] and 0.000931 µM in experiment [4].

Regarding `C[C@]1(c2cc(NC(=O)c3ccc(Cl)cn3)cnc2F)N=C(N)S[C@@]2(C(F)F)C[C@@H]12` [Example 655, N-(5-((1S,5S,6S)-3-amino-1-(difluoromethyl)-5-methyl-2-thia-4-azabicyclo[4.1.0]hept-3-en-5-yl)-6-fluoro-3-pyridinyl)-5-chloro-2-pyridinecarboxamide], the IC50 in experiment [1] was 1720 µM; in experiment [2], < 0.00203 µM; in experiment [3] it was 0.006 µM; in experiment [4], 0.00455 µM.

For the molecule `CC(C)NC(=O)c1cnc2c(Nc3cnc(F)c([C@@]4(C)N=C(N)S[C@@]5(C(F)F)C[C@@H]45)c3)nccc2c1` [Example 656, 8-((5-((1S,5S,6S)-3-amino-1-(difluoromethyl)-5-methyl-2-thia-4-azabicyclo[4.1.0]hept-3-en-5-yl)-6-fluoro-3-pyridinyl)amino)-N-(1-methylethyl)-1,7-naphthyridine-3-carboxamide], the IC50 in experiment [1] worked out at 998 µM; in experiment [2], 2.35 µM; in experiment [3] it was 0.624 µM; in experiment [4], 0.387 µM.

As for `C[C@]1(c2cc(Nc3nccc4cc(C#N)cnc34)cnc2F)N=C(N)S[C@@]2(C(F)F)C[C@@H]12` [Example 657, 8-((5-((1S,5S,6S)-3-amino-1-(difluoromethyl)-5-methyl-2-thia-4-azabicyclo[4.1.0]hept-3-en-5-yl)-6-fluoro-3-pyridinyl)amino)-1,7-naphthyridine-3-carbonitrile], the IC50 was determined as 306 µM in experiment [1], 0.00303 µM in experiment [2], 0.00533 µM in experiment [3] and 0.00369 µM in experiment [4].

As to `C[C@]1(c2cc(Nc3ncnc4cc(C#N)cnc34)cnc2F)N=C(N)S[C@@]2(C(F)F)C[C@@H]12` [Example 658, 4-((5-((1S,5S,6S)-3-amino-1-(difluoromethyl)-5-methyl-2-thia-4-azabicyclo[4.1.0]hept-3-en-5-yl)-6-fluoro-3-pyridinyl)amino)pyrido[3,2-d]pyrimidine-7-carbonitrile], the IC50 was determined as 705 µM in experiment [1], 0.0293 µM in experiment [2], 0.0136 µM in experiment [3] and 0.0107 µM in experiment [4].

Turning to `C#CCOc1cnc2c(Nc3cnc(F)c([C@@]4(C)N=C(N)S[C@@]5([C@H](O)C(F)(F)F)C[C@H]54)c3)nccc2n1` [Example 659, (1R)-1-((1S,5S,6S)-3-amino-5-(2-fluoro-5-((2-(2-propyn-1-yloxy)pyrido[3,4-b]pyrazin-5-yl)amino)-3-pyridinyl)-5-methyl-2-thia-4-azabicyclo[4.1.0]hept-3-en-1-yl)-2,2,2-trifluoroethanol], the IC50 in experiment [1] worked out at 462 µM; in experiment [2], 0.00425 µM; in experiment [3], 0.0013 µM; in experiment [4], 0.000774 µM.

With `C#CCOc1cnc2c(Nc3cnc(F)c([C@@]4(C)N=C(N)S[C@]5(CO)[C@H]4C5(F)F)c3)nccc2n1` [Example 661, ((1S,5S,6R)-3-amino-7,7-difluoro-5-(2-fluoro-5-((2-(2-propyn-1-yloxy)pyrido[3,4-b]pyrazin-5-yl)amino)-3-pyridinyl)-5-methyl-2-thia-4-azabicyclo[4.1.0]hept-3-en-1-yl)methanol], the IC50 in experiment [1] was found to be 795 µM; in experiment [2], 0.00392 µM; in experiment [3], 0.00244 µM; in experiment [4] it was 0.000765 µM.

`C[C@]1(c2cc(Nc3nccc4nc(OCc5ncco5)cnc34)cnc2F)N=C(N)S[C@]2(CO)[C@H]1C2(F)F` [Example 663, ((1S,5S,6R)-3-amino-7,7-difluoro-5-(2-fluoro-5-((2-(1,3-oxazol-2-ylmethoxy)pyrido[3,4-b]pyrazin-5-yl)amino)-3-pyridinyl)-5-methyl-2-thia-4-azabicyclo[4.1.0]hept-3-en-1-yl)methanol]: the IC50 in experiment [1] is 601 µM; in experiment [2] it was 0.0174 µM; in experiment [3] it was 0.00338 µM; in experiment [4], 0.00048 µM.

As to `C[C@]1(c2cc(Nc3ncnc4cc(OCc5ncco5)cnc34)cnc2F)N=C(N)S[C@]2(CO)[C@H]1C2(F)F` [Example 664, ((1S,5S,6R)-3-amino-7,7-difluoro-5-(2-fluoro-5-((7-(1,3-oxazol-2-ylmethoxy)pyrido[3,2-d]pyrimidin-4-yl)amino)-3-pyridinyl)-5-methyl-2-thia-4-azabicyclo[4.1.0]hept-3-en-1-yl)methanol], the IC50 in experiment [1] was > 400 µM; in experiment [2], 0.046 µM; in experiment [3], 0.0143 µM; in experiment [4] it was 0.000274 µM.

On to `C#CCOc1cnc2c(Nc3cnc(F)c([C@@]4(C)N=C(N)S[C@@]5([C@H](O)C(F)(F)F)C[C@H]54)c3)ncnc2c1` [Example 665, (1R)-1-((1S,5S,6S)-3-amino-5-(2-fluoro-5-((7-(2-propyn-1-yloxy)pyrido[3,2-d]pyrimidin-4-yl)amino)-3-pyridinyl)-5-methyl-2-thia-4-azabicyclo[4.1.0]hept-3-en-1-yl)-2,2,2-trifluoroethanol], for which the IC50 came to 1110 µM in experiment [1], 0.0383 µM in experiment [2], 0.00737 µM in experiment [3] and 0.00165 µM in experiment [4].

As for `C#CCOc1cnc2c(Nc3cnc(F)c([C@@]4(C)N=C(N)S[C@@]5([C@@H](O)C(F)(F)F)C[C@H]54)c3)ncnc2c1` [Example 666, (1S)-1-((1S,5S,6S)-3-amino-5-(2-fluoro-5-((7-(2-propyn-1-yloxy)pyrido[3,2-d]pyrimidin-4-yl)ammo)-3-pyridinyl)-5-methyl-2-thia-4-azabicyclo[4.1.0]hept-3-en-1-yl)-2,2,2-trifluoroethanol], the IC50 stood at 1690 µM in experiment [1], 0.177 µM in experiment [2], 0.00772 µM in experiment [3] and 0.00201 µM in experiment [4].

Turning to `C[C@]1(c2cc(Nc3ncnc4cc(OCc5ncco5)cnc34)cnc2F)N=C(N)S[C@@]2([C@H](O)C(F)(F)F)C[C@H]21` [Example 667, (1R)-1-((1S,5S,6S)-3-amino-5-(2-fluoro-5-((7-(1,3-oxazol-2-ylmethoxy)pyrido[3,2-d]pyrimidin-4-yl)amino)-3-pyridinyl)-5-methyl-2-thia-4-azabicyclo[4.1.0]hept-3-en-1-yl)-2,2,2-trifluoroethanol], the IC50 in experiment [1] stood at 1160 µM; in experiment [2] it was 0.0599 µM; in experiment [3], 0.00362 µM; in experiment [4] it was 0.00262 µM.

Regarding `C[C@]1(c2cc(Nc3ncnc4cc(OCc5ncco5)cnc34)cnc2F)N=C(N)S[C@@]2([C@@H](O)C(F)(F)F)C[C@H]21` [Example 668, (1S)-1-((1S,5S,6S)-3-amino-5-(2-fluoro-5-((7-(1,3-oxazol-2-ylmethoxy)pyrido[3,2-d]pyrimidin-4-yl)amino)-3-pyridinyl)-5-methyl-2-thia-4-azabicyclo[4.1.0]hept-3-en-1-yl)-2,2,2-trifluoroethanol], the IC50 was found to be 1970 µM in experiment [1], 0.233 µM in experiment [2], 0.00697 µM in experiment [3] and 0.0033 µM in experiment [4].
